Like-named read-outs stand apart in the source and are kept apart here.
Key:
[1] = test system: receptor; settings: rats, 3 mg/kg, cited from earlier work
[2] = test system: euploid and Ts65Dn mice; test: Convulsant effects after a single intraperitoneal injection; assay type: in vivo; settings: 50 mg/kg i.p., observed 20 min
Method: The convulsant action of the α5IA or beta CCM was evaluated after a single intraperitoneal injection of 50 or 3 mg/Kg of α5IA or beta CCM, respectively. The 50 mg/Kg dose of α5IA corresponded to 10 times the dose with promnesiant effects and 10 times the active dose in the object recognition test (5 mg/Kg)
The proconvulsant action of the α5IA was measured after injection of a subconvulsive dose of pentylenetetrazole. Mice were injected with either vehicle or the α5IA (50 mg/kg i.p) and 20 min later they received an intraperitoneal injection of 45 mg/kg of pentylenetetrazole. […] Six to 7 mice were used for each condition. The latency to the first myoclonic jerk episode and the convulsion grade were recorded during a 1200-s period of observation. Four grades were empirically determined: Grade 0: no effect; grade 1: tail up and curved; grade 2: reversed tail and convulsive shivers; grade 3: myoclonic convulsions.
We then tested the proconvulsant effect of α5IA by injecting it (50 mg/kg) 20 min before a sub-convulsant dose of pentylenetetrazol (45 mg/kg) that induces myoclonic convulsions in about 50% of mice.

[3] = test system: rats; settings: cited from earlier work
[4] = mainly in urine and in feces; cited from earlier work
[5] = test system: euploid mice; test: Dose-response in the delayed-matching-to-place task (DMTP); assay type: in vivo; settings: 5 mg/kg, 30 min before testing; versus placebo; p<0.05
Method: FIG. 5 depicts results from a dose-response effect study of α5IA. The optimal α5IA promnesiant dose was determined in mice trained in the DMTP task. FIG. 5A: Schematic representation of the DMTP protocol. Each day, mice underwent 1 acquisition trial and 3 retention trials (inter-trial interval was 60 sec). The position of the platform was changed every day, but remained constant within each session.
To determine the optimal dose of α5IA, a dose-response study was performed in euploid mice trained in the delayed-matching-to-place task (DMTP), a classical learning and memory paradigm used to assess the promnesiant effects of drugs, and in particular of GABAA α5 inverse agonists [ref 8, 9, 11].
Experiments were performed in a Morris water maze (MWM). The maze was a 150-cm diameter pool filled with opacified water kept at 19° C. and equipped with a 9 cm diameter platform submerged 1 cm under the water surface. A total of 27 mice were used. Animals were randomly and equally distributed in 3 groups (placebo, α5IA 1 mg/kg, α5IA 5 mg/kg). Training was performed during 7 days. […] Memory assessment was determined by comparing the distance to reach the platform on the first trial (acquisition trial) and the mean distance traveled in subsequent trials (retention trials).

[6] = test system: fos protein; test: Cerebral fos immunoreactivity after object recognition acquisition; assay type: in vivo, mice; settings: 5 mg/kg i.p.
Method: The mechanism of action of α5IA was investigated by quantifying neuronal activity by measuring production of fos protein in mice subjected to an object recognition task (exploration of a new environment).
The protocol that was used involved treating mice (placebo or drug). 30 minutes later, the mice were subjected to exploring a new environment, a situation in which the animal acquires and stores information spontaneously. This behavioral stimulation activates c-fos gene, and the expression product of this gene (the Fos protein) is then detected by immunohistochemistry and quantified using dedicated image analysis software. […]
Image analysis was performed as follows: regions of interest (ROIs) were photographed using an Olympus BX61 microscope (x10 objective) and fos immunostaining was quantified using a dedicated image processing software which automatically calculated the proportion of fos-stained tissue (p=stained area/total area), providing an unbiased stereological measurement of fos immunoreactivity. Four ROIs were analyzed: posterior cingulate cortex, perirhinal cortex, dentate gyms and CA1 field of the hippocampus. Each ROI was sampled on several serial sections and results were then averaged to give a reliable quantitative evaluation of local fos immunostaining.

[7] = test system: GABAA receptors containing either an α1, α2, α3 or α5 subunit; settings: cited from earlier work

Cc1cc(-c2nnc3c4ccccc4c(OCc4cn(C)nn4)nn23)no1 [α5IA, 3-(5-methylisoxazol-3-yl)-6-[(1-methyl-1,2,3-triazol-4-yl)methyloxy]-1,2,4-triazolo[3,4-a]phthalazine]
receptor occupancy ([1]; after 2 h): 80%
receptor occupancy ([1]; after 8 h): 60%
Convulsant mice rate ([2]; Euploids): 0/6
Convulsant mice rate ([2]; Ts65Dn): 0/7
cognitive performance in variant of the Morris water maze task ([3]; rat, in vivo): enhance cognitive performance
effective promnesiant dose in the MWM test ([3]; rats): 3 mg/kg
metabolism [4]: exclusively metabolized into the hydroxymethyl isoxazol metabolite M1
Performance (distance to platform) between acquisition and retention trials [5]: significantly higher performance
fos immunoreactivity relative to placebo-treated littermates ([6]; all brain regions sampled, except the dentate gyrus): significant increase of fos
neuronal activity (fos) in the dentate gyrus ([6]; dentate gyrus): not significantly affected
binding affinity at the benzodiazepine binding site [7]: equal affinity
